Results reported in patent publication US20060074061A1, “Formulations of glucocorticoids to treat pathologic ocular angiogenesis” (priority 2003, published 2006).

Experiment: Topical anecortave acetate in patients with glucocorticoid induced ocular hypertension (IOP)
Assay type: in vivo, human
Details: patients (n=15) with glucocorticoid induced ocular hypertension; 1% eye drops topically three times per day for up to 12 weeks; glucocorticoid medication continued; IOP before treatment 29 mm Hg; significantly reduced
Description: Patients (η=15) with documented glucocorticoid induced ocular hypertension were treated topically with 1% anecortave acetate eye drops three times per day for up to 12 weeks. The patients continued to receive their glucocorticoid medication.

In the case of `CC(=O)OCC(=O)[C@@]1(O)CC[C@H]2[C@@H]3CCC4=CC(=O)CC[C@]4(C)C3=CC[C@@]21C` [anecortave acetate, 4,9(11)-pregnadien-17α,21-diol-3,20dione-21-acetate], the “IOP after anecortave acetate treatment” value is reported as 19-22 mm Hg.
